In patent US20240018592A1, “METHODS OF ASSESSING THE THERAPEUTIC ACTIVITY OF AGENTS FOR THE TREATMENT OF IMMUNE DISORDERS” (Technion Research & Development Foundation Limited, priority 2020, published 2024):

Assays:
Format in all cases: in vivo, human
[1] = Infliximab drug levels and anti-drug antibodies (ADA) after first treatment; conditions: drug level, mean ± SEM, levels >20 taken as 20
Protocol: (§1) Sample collection: The cohort consisted of 24 Crohn's disease (CD) patients who received Infliximab anti-TNF treatment at the gastroenterology department of the Rambam Health Care Campus (RHCC) and met the study inclusion criteria as follows: 1) Adequately documented active luminal CD, as phenotyped by a gastroenterologist with expertise in IBD; 2) Documented decision to initiate full infliximab induction regimen with 5 mg/kg induction dosing (i.e. at weeks 0, 2, 6). Patients that had past exposure to Infliximab, Adalimumab or Vedolizumab, or patients who had active infection including febrile diseases or intra-abdominal or perianal abscess were excluded.
(§2) Patient samples were obtained at three time points: at baseline, before infliximab treatment, and two and fourteen weeks post first treatment and assayed for gene expression microarray data.

[2] = test system: Crohn's disease (CD) patients; assay: Infliximab induction treatment of Crohn's disease patients: clinical and laboratory outcome (CRP, albumin, HBI, clinical response, response classification); conditions: for HBI 14 w post first treatment: Harvey-Bradshaw Index; for HBI 14 w post first treatment / Albumin 2 w post first treatment / Albumin 14 w post first treatment / CRP 2 w post first treatment / CRP 14 w post first treatment: mean ± SEM
Protocol: as §1, §2
Patient response classification was defined by decision algorithm, as described previously (Gaujoux et al. 2018). Briefly, patients were classified as responders based on clinical remission, which was defined as cessation of diarrhea and abdominal cramping or, in the cases of patients with fistulas, cessation of fistula drainage and complete closure of all draining fistulas at week 14, coupled with a decision of the treating physician to continue IFX therapy at the current dosing and schedule. Patients that were defined as partial responders, classification was determined by the decision algorithm that included the following hierarchical rules: 1) steroid dependency at week fourteen; 2) biomarker dynamics (Calprotectin and CRP) and 3) response according to clinical state at week 26.
Applying the decision algorithm and exclusion criteria, yielded a final study cohort of 15 and 9 responding and non-responding patients, respectively.

[3] = test system: immune age (IMM-AGE) score of peripheral blood; assay: Immune-age score from whole blood gene expression (Affymetrix Clariom S, single-sample GSEA) before and after infliximab
From the text: as §2
Blood transcriptome processing and analysis: Whole blood was preserved in PAXgene Blood RNA tubes (PreAnalytiX). RNA was extracted and assayed using Affymetrix Clariom S chips (Thermo Fisher Scientific). The raw gene array data were processed to obtain a log 2 expression value for each gene probe set using the RMA (robust multichip average) method available in the affy R package. Probe set annotation was performed using affycoretools and clariomshumantranscriptcluster.db packages in R. Data were further adjusted for batch effect using empirical Bayes framework applied by the Combat R package.
Using a high-resolution longitudinal gene expression dataset from peripheral blood samples of 24 CD patients, 15 and 9 responding and non-responding patients, at three time points: pretreatment, 2 and 14 weeks post first treatment, the present inventors evaluated the samples' immune-age score reflecting the samples' position along the high dimensional IMM-AGE trajectory. To quantify the immune age of the CD patients, they used normalized gene expression measurements of the following genes: ABLIM1, AFF3, BACH2, BCL11A, BIRC3, BLNK, BTLA, C11orf31, C6orf48, CCR6, CCR7, CD200, CD22, CD27, CD28, CDCA7L, CHMP7, CR2, DPP4, E2F5, EPHX2, FAIM3, FAM102A, FAM134, FCRL1, FCRL2. HOOK1, HVCN1, IL6ST, IMPDH2, KIAA0748, LEF1, LRRN3, MYC, NELL2, NT5E, P2RX5, PAQR8, PLAG1, PTPRK, RCAN3, SCML1, SLC7A6, SNX9, STRBP, SUSD3, TCF4, TCF7, TCL1A, TCTN1, UXT, VPREB3, ZNF101, ZNF671, CRTC3, STAP1 and HLA-DOB.
The immune-age of the CD patients was estimated by using single-sample GSEA algorithm (Barbie D A et al. Nature 462, 108-112 (2009)). An external IBD (CD and UC) disease specific molecular response axis was used to describe the patients' dynamics by generating a PCA on differential gene expression between active and in-active disease states treated with variety of treatment regimens (using public data, GSE94648).

[4] = of 24 CD patients, classified by decision algorithm at week 14

With Infliximab [IFX] the “IFX 2 w post first treatment” value ([1]; IFX non-responders (n = 9)) was 8.9 ± 1.9 ng/µL, the “IFX 14 w post first treatment” value ([1]; IFX non-responders (n = 9)) was 0.9 ± 0.3 ng/µL and the “IFX 2 w post first treatment” value ([1]; IFX responders (n = 15)) was 10.7 ± 1.8 ng/µL. For the same substance, the “IFX 14 w post first treatment” value ([1]; IFX responders (n = 15)) was 3.3 ± 0.5 ng/µL, the “HBI 14 w post first treatment” value ([2]; IFX non-responders (n = 9)) was 5 ± 2.2 and the “HBI 14 w post first treatment” value ([2]; IFX responders (n = 15)) was 0.8 ± 0.3. The “Albumin 2 w post first treatment” value ([2]; IFX non-responders (n = 9)) was 3.3 ± 0.3, the “Albumin 14 w post first treatment” value ([2]; IFX non-responders (n = 9)) was 3.1 ± 0.2 and the “CRP 2 w post first treatment” value ([2]; IFX non-responders (n = 9)) was 8.8 ± 3.2. The “CRP 14 w post first treatment” value ([2]; IFX non-responders (n = 9)) was 28.0 ± 13.6, the “Albumin 2 w post first treatment” value ([2]; IFX responders (n = 15)) was 3.7 ± 0.1 and the “Albumin 14 w post first treatment” value ([2]; IFX responders (n = 15)) was 4.0 ± 0.1. The “CRP 14 w post first treatment” value ([2]; IFX responders (n = 15)) was 5.1 ± 1.8, the “CRP 2 w post first treatment” value ([2]; IFX responders (n = 15), 5 mg/kg induction) was 2.7 ± 0.7 and the non-responding patients [2, 4] was 9 patients. For the same substance, the responding patients [2, 4] was 15 patients, the “shift of patients' immune age” value ([3]; cohort of 24 CD patients treated with anti-TNF (Infliximab)) was “dramatically shift patients' immune age” and the “immune age dynamics in responders” value ([3]; responders versus non-responders, post treatment relative to baseline) was “shifted back their immune age and presented a significant drop”. The “immune age score in responders, early” value ([3]; responders, 2 weeks post treatment) was “significant reduced immune age score”.
